The values that follow come from patent US20250018014A1, “METHOD FOR TREATING AND/OR PREVENTING REGNASE-1-RELATED DISEASE” (OSAKA UNIVERSITY, priority 2018, published 2025).

Residues, ends and D or L forms follow the SMILES beside them. Where only a bound is given, the exact number is not on record here.

The target in the first assay is T1, ΔCTD_Reg1 (amino acids 1 to 546 of human Regnase-1) phosphorylation by TBK1 (Homo sapiens, UniProt Q5D1E8).
T1 construct: made in house; host or cells: Expi293 cells
T1 sequence (Q5D1E8 1-546): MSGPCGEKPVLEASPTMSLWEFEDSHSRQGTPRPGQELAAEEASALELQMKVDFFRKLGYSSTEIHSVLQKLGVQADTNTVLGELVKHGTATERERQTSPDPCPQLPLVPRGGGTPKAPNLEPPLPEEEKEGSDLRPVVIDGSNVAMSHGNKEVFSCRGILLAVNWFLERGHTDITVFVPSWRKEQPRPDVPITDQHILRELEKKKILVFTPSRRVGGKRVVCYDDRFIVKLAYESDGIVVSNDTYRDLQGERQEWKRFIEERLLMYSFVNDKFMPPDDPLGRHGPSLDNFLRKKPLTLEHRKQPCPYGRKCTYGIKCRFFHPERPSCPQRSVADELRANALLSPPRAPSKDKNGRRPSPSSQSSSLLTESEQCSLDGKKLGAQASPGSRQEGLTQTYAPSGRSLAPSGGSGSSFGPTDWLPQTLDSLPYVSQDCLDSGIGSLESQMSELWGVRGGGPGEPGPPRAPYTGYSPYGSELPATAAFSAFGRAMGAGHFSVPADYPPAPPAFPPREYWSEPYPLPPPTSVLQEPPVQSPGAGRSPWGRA
The experiment in a line: Regnase-1 phosphorylation inhibition by compounds (AlphaScreen), TBK1, CTD-deficient Regnase-1. The class given is biochemical. The settings on record: Table 13; phosphorylation by TBK1; read-out: Phosphorylation inhibition ΔCTD_Reg1, 50% inhibition concentration (TBK1). The source says: (§1) The full-length sequence of human Regnase-1 (UniProt ID: Q5D1E8) was used to prepare a construct having a FLAG tag on the N-terminal side and a recognition sequence for biotin ligase BirA on the C-terminal side (FL_Reg1) as a target protein. The above-mentioned Regnase-1 was expressed in mammalian Expi293 cells, purified with FLAG M2 agarose, and isolated by gel filtration chromatography. When biotinylation was required, methods from nonpatent documents (BMC biotechnology, 2008,8,41; and Protein Science, 1999,8,921-929) were used.
(§2) Among the full-length human Regnase-1 sequence, the 1st to 546th amino acid sequence was prepared and made into a construct having a FLAG tag on the N-terminal side and a biotin ligase BirA recognition sequence on the C-terminal side (herein, a Regnase-1 lacking the C-terminal domain of Regnase-1 (amino acids 547 to 599 in the case of SEQ ID NO: 2) is referred to as “ΔCTD_Reg1”. “ΔCTD_Reg1” is different from “Regnase-1ΔCTD”, which is a C-terminal domain deletion variant resulting from a frameshift mutation caused by a 1 bp deletion at codon 517, as prepared in Example 13). In addition, the sequence from amino acids 301 to 599 of the full-length human Regnase-1 sequence was designated as C-terminal Regnase-1, and a construct having a FLAG tag on the N-terminal side and a recognition sequence for biotin ligase BirA on the C-terminal side was prepared (Reg1_301-599). The above-mentioned Regnase-1 was expressed in mammalian Expi293 cells, purified with FLAG M2 agarose, and isolated by gel filtration chromatography. When biotinylation was required, methods of nonpatent documents (BMC biotechnology, 2008,8,41; and Protein Science, 1999,8,921-929) were used.
(§3) Using Kinase assay buffer III (manufactured by SignalChem) supplemented with 2 mM DTT, 100 μM sodium vanadate, and 2 mM manganese chloride, kinase (IKKβ (manufactured by SignalChem) or TBK1 (manufactured by SignalChem)) and Regnase-1 were reacted in the presence of 10 μM ATP at room temperature for 2 hours to perform a phosphorylation reaction.
(§4) Phosphorylated Regnase-1 was detected by the AlphaScreen system. After each of the above-mentioned phosphorylated Regnase-1 antibodies was added and reacted at room temperature for one hour, anti-FLAG AlphaLISA Acceptor Beads (manufactured by PerkinElmer) and Protein A AlphaScreen Donor Beads (manufactured by PerkinElmer) were added, and EnVision (manufactured by PerkinElmer) was used to measure the excited luminescence. As a result, phosphorylated Regnase-1 produced by the phosphorylation reaction by kinase was specifically detected, and signals were confirmed to be enhanced in a manner dependent on Regnase-1 and kinase concentrations (FIG. 24).
(§5) After mixing 2 nM of the above-mentioned Regnase-1 and the compound, phosphorylated Regnase-1 produced by the phosphorylation reaction was detected by the AlphaScreen system. As the results, the inhibition rate was calculated from the signals obtained when adding the compound at each concentration, by defining the signal obtained with Regnase-1 alone to be 100% inhibition rate, and the signal obtained when the same amount of solvent (DMSO) is added in place of the compound as 0% inhibition rate. The 50% inhibition concentration (μM) was calculated from the obtained dose response curve (Table 11).
With `CC[C@H](C)[C@@H]1NC(=O)[C@H](CC(=O)O)NC(=O)[C@H](C)N(C)C(=O)C[C@@H](C(=O)N2CCCC2)NC(=O)[C@H](Cc2c[nH]c3ccccc23)NC(=O)[C@H](CC(=O)O)NC(=O)[C@H](Cc2c[nH]c3ccccc23)NC(=O)[C@H](Cc2ccc(O)cc2)NC(=O)[C@H](CC(=O)O)NC(=O)[C@H](Cc2ccccc2)NC(=O)[C@H](Cc2c[nH]c3ccccc23)NC1=O` [PP17] (HELM PEPTIDE1{[meA].D.I.W.F.D.Y.W.D.W.D.[C1CCN([*:1])C1]}$PEPTIDE1,PEPTIDE1,1:R1-11:R3$$$V2.0), the IC50 was found to be 0.3 µM.

Another assay concerns the target T2, Reg1_301-599 (amino acids 301-599 of human Regnase-1) phosphorylation by TBK1 (Homo sapiens, UniProt Q5D1E8).
T2 construct: made in house; host or cells: Expi293 cells
T2 sequence (Q5D1E8 301-599): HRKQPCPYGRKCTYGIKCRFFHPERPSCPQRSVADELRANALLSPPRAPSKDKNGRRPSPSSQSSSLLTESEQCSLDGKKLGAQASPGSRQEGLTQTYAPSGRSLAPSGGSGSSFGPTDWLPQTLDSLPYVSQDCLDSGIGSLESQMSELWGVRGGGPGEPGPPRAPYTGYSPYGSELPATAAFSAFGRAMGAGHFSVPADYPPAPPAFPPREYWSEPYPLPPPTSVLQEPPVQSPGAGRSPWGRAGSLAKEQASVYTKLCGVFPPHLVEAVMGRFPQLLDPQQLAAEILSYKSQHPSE
The experiment in a line: Regnase-1 phosphorylation inhibition by compounds (AlphaScreen), TBK1, C-terminal Regnase-1. The class given is biochemical. Particulars: Table 13, read-out: Phosphorylation inhibition Reg1_301-599, 50% inhibition concentration (TBK1). The protocol: as §2, §3, §4, §5
Take `CC[C@H](C)[C@@H]1NC(=O)[C@H](CC(N)=O)NC(=O)[C@H](Cc2ccc(O)cc2)NC(=O)[C@H](Cc2c[nH]c3ccccc23)NC(=O)[C@H](CO)NC(=O)[C@H](CC(N)=O)NC(=O)[C@H](CO)NC(=O)[C@H](Cc2ccccc2)NC(=O)[C@H](CC(N)=O)NC(=O)[C@H](C)N(C)C(=O)C[C@@H](C(=O)N2CCCC2)NC(=O)[C@H](Cc2c[nH]c3ccccc23)NC1=O` [PP16] (HELM PEPTIDE1{[meA].N.F.S.N.S.W.Y.N.I.W.D.[C1CCN([*:1])C1]}$PEPTIDE1,PEPTIDE1,1:R1-12:R3$$$V2.0): the IC50 was more than 62.1 µM.

For the compound `CC[C@H](C)[C@@H]1NC(=O)[C@H](CC(=O)O)NC(=O)[C@H](C)N(C)C(=O)C[C@@H](C(=O)N2CCCC2)NC(=O)[C@H](Cc2c[nH]c3ccccc23)NC(=O)[C@H](CC(=O)O)NC(=O)[C@H](Cc2c[nH]c3ccccc23)NC(=O)[C@H](Cc2ccc(O)cc2)NC(=O)[C@H](CC(=O)O)NC(=O)[C@H](Cc2ccccc2)NC(=O)[C@H](Cc2c[nH]c3ccccc23)NC1=O` [PP17] (HELM PEPTIDE1{[meA].D.I.W.F.D.Y.W.D.W.D.[C1CCN([*:1])C1]}$PEPTIDE1,PEPTIDE1,1:R1-11:R3$$$V2.0), the IC50 was less than 0.06 µM.

For `CC[C@H](C)[C@@H]1NC(=O)[C@H](CCCCN)NC(=O)[C@H](Cc2ccc(O)cc2)NC(=O)[C@H](Cc2c[nH]c3ccccc23)NC(=O)[C@H](CO)NC(=O)[C@H](CC(N)=O)NC(=O)[C@H](C)N(C)C(=O)C[C@@H](C(=O)N2CCCC2)NC(=O)[C@H](CC(C)C)NC(=O)CNC(=O)[C@H](Cc2c[nH]c3ccccc23)NC1=O` [PP21] (HELM PEPTIDE1{[meA].N.S.W.Y.K.I.W.G.L.D.[C1CCN([*:1])C1]}$PEPTIDE1,PEPTIDE1,1:R1-11:R3$$$V2.0), the IC50 turned out to be 17 µM.

For another assay, the target named is T3, Reg1_301-599 (amino acids 301-599 of human Regnase-1) phosphorylation by IKKβ (Homo sapiens, UniProt Q5D1E8).
T3 construct: made in house; host or cells: Expi293 cells
T3 sequence (Q5D1E8 301-599): T2 sequence (Q5D1E8 301-599)
The experiment in a line: Regnase-1 phosphorylation inhibition by compounds (AlphaScreen), IKKβ, C-terminal Regnase-1. The class given is biochemical. The settings on record: Table 14, read-out: Phosphorylation inhibition Reg1_301-599, 50% inhibition concentration (IKKβ).
Source text: as §1, §2, §3, §4, §5
As to `CC[C@H](C)[C@@H]1NC(=O)[C@H](CCCCN)NC(=O)[C@H](Cc2ccc(O)cc2)NC(=O)[C@H](Cc2c[nH]c3ccccc23)NC(=O)[C@H](CO)NC(=O)[C@H](CO)NC(=O)[C@H]([C@@H](C)O)NC(=O)[C@@H]2CCCN2C(=O)[C@@H](C)N(C)C(=O)C[C@@H](C(=O)N2CCCC2)NC(=O)[C@H](Cc2c[nH]c3ccccc23)NC1=O` [PP23] (HELM PEPTIDE1{[C[C@H](C(=O)[*:2])N(C)[*:1]].P.T.S.S.W.Y.K.I.W.D.[C1CCN([*:1])C1]}$PEPTIDE1,PEPTIDE1,1:R1-11:R3$$$V2.0), the IC50 was more than 62.1 µM.

Regarding `CC[C@H](C)[C@@H]1NC(=O)[C@H](CCCNC(=N)N)NC(=O)[C@H](Cc2ccc(O)cc2)NC(=O)[C@H](Cc2c[nH]c3ccccc23)NC(=O)[C@H](CO)NC(=O)[C@H](CC(N)=O)NC(=O)[C@H](C)N(C)C(=O)C[C@@H](C(=O)N2CCCC2)NC(=O)[C@H](CC(C)C)NC(=O)CNC(=O)[C@H](Cc2c[nH]c3ccccc23)NC1=O` [PP22] (HELM PEPTIDE1{[meA].N.S.W.Y.R.I.W.G.L.D.[C1CCN([*:1])C1]}$PEPTIDE1,PEPTIDE1,1:R1-11:R3$$$V2.0), the IC50 is 31 µM.
